# In publication PMC12420824, “Discovery of a selective alpha-kinase 1 inhibitor for the rare genetic disease ROSAH syndrome” (Nature Communications, 2025):
# How the values were obtained:
# Settings in all cases: read-out: % Enzyme Activity (relative to DMSO control), 10 uM
# HIPK2 = HIPK2 (Homo sapiens, UniProt Q9H2X6); experiment: HotSpot kinase assay
# Excerpt: (§1) Additionally, a 10-dose dilution series of staurosporine and other enzyme-appropriate compounds were included as positive control inhibitors.
# ERBB4/HER4 = ERBB4/HER4 (Homo sapiens, UniProt Q15303); experiment: HotSpot kinase assay
# Excerpt: as §1
# TBK1 = TBK1 (Homo sapiens, UniProt Q9UHD2); experiment: HotSpot kinase assay
# Excerpt: as §1
# PKG1a = PKG1a (Homo sapiens, UniProt Q13976); experiment: HotSpot kinase assay
# Excerpt: as §1
# JNK3 = JNK3 (Homo sapiens, UniProt P53779); experiment: HotSpot kinase assay
# Excerpt: as §1
# ITK = ITK (Homo sapiens, UniProt Q08881); experiment: HotSpot kinase assay
# Excerpt: as §1
# ZIPK/DAPK3 = ZIPK/DAPK3 (Homo sapiens, UniProt O43293); experiment: HotSpot kinase assay
# Excerpt: as §1
# CDK14/cyclin Y (PFTK1) = CDK14/cyclin Y (PFTK1) (Homo sapiens, UniProt O94921); experiment: HotSpot kinase assay
# Excerpt: as §1
# STK16 = STK16 (Homo sapiens, UniProt O75716); experiment: biochemical
# Excerpt: as §1
# JNK1 = JNK1 (Homo sapiens, UniProt P45983); experiment: HotSpot kinase assay
# Excerpt: as §1
# SRPK2 = SRPK2 (Homo sapiens, UniProt P78362); experiment: HotSpot kinase assay
# Excerpt: as §1
# ALK4/ACVR1B = ALK4/ACVR1B (Homo sapiens, UniProt P36896); experiment: HotSpot kinase assay
# Excerpt: as §1
# TLK1 = TLK1 (Homo sapiens, UniProt Q9UKI8); experiment: HotSpot kinase assay
# Excerpt: as §1
# TLK2 = TLK2 (Homo sapiens, UniProt Q86UE8); experiment: HotSpot kinase assay
# Excerpt: as §1
# AMPK (A2/B1/G3) = AMPK (A2/B1/G3) (Homo sapiens, UniProt P54646); experiment: HotSpot kinase assay
# Excerpt: as §1
# CLK4 = CLK4 (Homo sapiens, UniProt Q9HAZ1); experiment: HotSpot kinase assay
# Excerpt: as §1
# RSK2 = RSK2 (Homo sapiens, UniProt P51812); experiment: HotSpot kinase assay
# Excerpt: as §1
# PDGFRa = PDGFRa (Homo sapiens, UniProt P16234); experiment: HotSpot kinase assay
# Excerpt: as §1
# MSK2/RPS6KA4 = MSK2/RPS6KA4 (Homo sapiens, UniProt O75676); experiment: HotSpot kinase assay
# Excerpt: as §1
# BRK = BRK (Homo sapiens, UniProt Q13882); experiment: HotSpot kinase assay
# Excerpt: as §1
# LKB1 = LKB1 (Homo sapiens, UniProt Q15831); experiment: HotSpot kinase assay
# Excerpt: as §1
# ERN2/IRE2 = ERN2/IRE2 (Homo sapiens, UniProt Q76MJ5); experiment: HotSpot kinase assay
# Excerpt: as §1
# EPHA7 = EPHA7 (Homo sapiens, UniProt Q15375); experiment: HotSpot kinase assay
# Excerpt: as §1
# LCK = LCK (Homo sapiens, UniProt P06239); experiment: HotSpot kinase assay
# Excerpt: as §1
# SNARK/NUAK2 = SNARK/NUAK2 (Homo sapiens, UniProt Q9H093); experiment: HotSpot kinase assay
# Excerpt: as §1
# CLK2 = CLK2 (Homo sapiens, UniProt P49760); experiment: HotSpot kinase assay
# Excerpt: as §1
# GRK4 = GRK4 (Homo sapiens, UniProt P32298); experiment: HotSpot kinase assay
# Excerpt: as §1
# PAK1 = PAK1 (Homo sapiens, UniProt Q13153); experiment: HotSpot kinase assay
# Excerpt: as §1
# CK2a = CK2a (Homo sapiens, UniProt P68400); experiment: HotSpot kinase assay
# Excerpt: as §1
# MEK1 = MEK1 (Homo sapiens, UniProt Q02750); experiment: HotSpot kinase assay
# Excerpt: as §1
# VRK1 = VRK1 (Homo sapiens, UniProt Q99986); experiment: HotSpot kinase assay
# Excerpt: as §1
# FGFR3 = FGFR3 (Homo sapiens, UniProt P22607); experiment: HotSpot kinase assay
# Excerpt: as §1
# EIF2AK1 = EIF2AK1 (Homo sapiens, UniProt Q9BQI3); experiment: HotSpot kinase assay
# Excerpt: as §1
# TRKA = TRKA (Homo sapiens, UniProt P04629); experiment: HotSpot kinase assay
# Excerpt: as §1
# BTK = BTK (Homo sapiens, UniProt Q06187); experiment: HotSpot kinase assay
# Excerpt: as §1
# GRK1 = GRK1 (Homo sapiens, UniProt Q15835); experiment: HotSpot kinase assay
# Excerpt: as §1
# DYRK2 = DYRK2 (Homo sapiens, UniProt Q92630); experiment: HotSpot kinase assay
# Excerpt: as §1
# DAPK1 = DAPK1 (Homo sapiens, UniProt P53355); experiment: HotSpot kinase assay
# Excerpt: as §1
# SLK/STK2 = SLK/STK2 (Homo sapiens, UniProt Q9H2G2); experiment: HotSpot kinase assay
# Excerpt: as §1
# MLK2/MAP3K10 = MLK2/MAP3K10 (Homo sapiens, UniProt Q02779); experiment: HotSpot kinase assay
# Excerpt: as §1
# GRK4, sequence (P32298 whole entry): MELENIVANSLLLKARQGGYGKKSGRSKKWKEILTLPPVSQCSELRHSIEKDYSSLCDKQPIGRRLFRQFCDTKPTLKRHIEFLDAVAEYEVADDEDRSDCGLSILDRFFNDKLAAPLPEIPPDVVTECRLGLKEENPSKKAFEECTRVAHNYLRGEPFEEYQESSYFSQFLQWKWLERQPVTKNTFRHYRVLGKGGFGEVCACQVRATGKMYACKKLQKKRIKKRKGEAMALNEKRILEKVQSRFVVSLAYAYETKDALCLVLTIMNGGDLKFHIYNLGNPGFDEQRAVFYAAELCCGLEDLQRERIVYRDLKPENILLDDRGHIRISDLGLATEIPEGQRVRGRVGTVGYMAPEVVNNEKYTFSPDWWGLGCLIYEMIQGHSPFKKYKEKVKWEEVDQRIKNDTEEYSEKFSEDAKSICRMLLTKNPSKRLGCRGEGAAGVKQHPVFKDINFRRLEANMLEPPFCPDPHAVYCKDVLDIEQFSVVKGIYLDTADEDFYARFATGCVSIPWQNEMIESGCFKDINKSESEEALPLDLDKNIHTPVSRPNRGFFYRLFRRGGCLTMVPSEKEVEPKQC
# PAK1, sequence (Q13153 whole entry): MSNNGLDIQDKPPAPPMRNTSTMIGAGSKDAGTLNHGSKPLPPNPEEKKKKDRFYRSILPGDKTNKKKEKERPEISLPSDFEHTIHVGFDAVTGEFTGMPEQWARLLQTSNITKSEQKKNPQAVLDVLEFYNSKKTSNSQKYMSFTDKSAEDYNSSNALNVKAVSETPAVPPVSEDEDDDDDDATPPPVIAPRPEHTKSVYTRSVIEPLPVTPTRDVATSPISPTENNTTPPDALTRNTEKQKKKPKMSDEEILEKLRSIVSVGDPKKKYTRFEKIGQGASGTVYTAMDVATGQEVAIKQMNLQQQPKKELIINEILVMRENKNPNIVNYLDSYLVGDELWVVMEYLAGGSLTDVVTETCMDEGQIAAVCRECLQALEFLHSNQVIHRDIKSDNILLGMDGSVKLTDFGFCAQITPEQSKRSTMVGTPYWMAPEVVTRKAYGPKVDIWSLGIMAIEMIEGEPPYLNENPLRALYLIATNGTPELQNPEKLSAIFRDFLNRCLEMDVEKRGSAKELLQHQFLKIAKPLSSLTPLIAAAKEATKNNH
# CK2a, sequence (P68400 whole entry): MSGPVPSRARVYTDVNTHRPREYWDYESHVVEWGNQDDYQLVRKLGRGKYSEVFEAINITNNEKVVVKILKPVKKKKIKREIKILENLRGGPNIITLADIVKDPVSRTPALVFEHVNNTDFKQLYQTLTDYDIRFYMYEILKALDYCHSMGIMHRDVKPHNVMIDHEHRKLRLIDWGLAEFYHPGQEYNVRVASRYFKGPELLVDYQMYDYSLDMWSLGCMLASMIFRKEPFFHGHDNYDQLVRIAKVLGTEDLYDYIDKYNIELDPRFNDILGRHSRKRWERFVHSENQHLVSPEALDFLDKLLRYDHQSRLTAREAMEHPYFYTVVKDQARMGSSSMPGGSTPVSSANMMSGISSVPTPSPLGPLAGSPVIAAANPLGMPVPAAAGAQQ
# RSK2, sequence (P51812 whole entry): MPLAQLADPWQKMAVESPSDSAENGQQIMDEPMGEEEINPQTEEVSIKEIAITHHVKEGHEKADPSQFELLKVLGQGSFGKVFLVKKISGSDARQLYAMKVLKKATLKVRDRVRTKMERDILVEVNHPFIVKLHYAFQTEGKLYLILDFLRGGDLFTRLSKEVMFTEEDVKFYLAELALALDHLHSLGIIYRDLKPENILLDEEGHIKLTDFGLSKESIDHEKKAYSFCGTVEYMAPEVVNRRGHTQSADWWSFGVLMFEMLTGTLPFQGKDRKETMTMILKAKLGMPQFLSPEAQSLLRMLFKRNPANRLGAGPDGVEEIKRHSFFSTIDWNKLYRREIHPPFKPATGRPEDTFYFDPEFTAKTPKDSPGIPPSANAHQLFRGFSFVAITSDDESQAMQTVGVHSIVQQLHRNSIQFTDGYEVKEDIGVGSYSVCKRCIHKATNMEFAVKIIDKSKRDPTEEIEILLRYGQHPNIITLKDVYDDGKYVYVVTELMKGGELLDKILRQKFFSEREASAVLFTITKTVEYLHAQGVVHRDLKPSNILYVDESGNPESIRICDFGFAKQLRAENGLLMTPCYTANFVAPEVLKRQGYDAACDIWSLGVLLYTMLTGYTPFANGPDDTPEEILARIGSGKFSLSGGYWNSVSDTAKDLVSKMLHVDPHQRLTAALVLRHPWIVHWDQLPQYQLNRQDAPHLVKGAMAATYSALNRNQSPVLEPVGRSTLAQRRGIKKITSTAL
# TRKA, sequence (P04629 33-796): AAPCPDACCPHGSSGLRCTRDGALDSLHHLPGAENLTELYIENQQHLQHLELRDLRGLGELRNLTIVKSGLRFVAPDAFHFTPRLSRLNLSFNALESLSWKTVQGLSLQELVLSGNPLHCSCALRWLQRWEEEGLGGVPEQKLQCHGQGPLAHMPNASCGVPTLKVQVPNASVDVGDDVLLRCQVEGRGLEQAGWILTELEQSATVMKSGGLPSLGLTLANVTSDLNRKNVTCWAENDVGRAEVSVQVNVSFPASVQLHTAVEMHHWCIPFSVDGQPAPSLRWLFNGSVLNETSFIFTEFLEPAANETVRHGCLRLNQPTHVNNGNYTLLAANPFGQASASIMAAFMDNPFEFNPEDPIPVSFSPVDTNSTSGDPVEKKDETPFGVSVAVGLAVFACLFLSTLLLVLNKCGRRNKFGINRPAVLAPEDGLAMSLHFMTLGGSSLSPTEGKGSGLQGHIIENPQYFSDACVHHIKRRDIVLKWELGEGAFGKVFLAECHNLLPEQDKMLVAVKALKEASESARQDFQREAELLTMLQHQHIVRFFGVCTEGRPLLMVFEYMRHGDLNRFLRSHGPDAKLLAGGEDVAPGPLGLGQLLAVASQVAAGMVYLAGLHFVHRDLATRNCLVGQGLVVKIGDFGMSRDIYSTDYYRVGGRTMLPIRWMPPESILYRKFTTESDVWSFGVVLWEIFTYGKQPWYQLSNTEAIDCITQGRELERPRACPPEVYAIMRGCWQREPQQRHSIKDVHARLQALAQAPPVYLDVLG
# HIPK2, sequence (Q9H2X6 whole entry): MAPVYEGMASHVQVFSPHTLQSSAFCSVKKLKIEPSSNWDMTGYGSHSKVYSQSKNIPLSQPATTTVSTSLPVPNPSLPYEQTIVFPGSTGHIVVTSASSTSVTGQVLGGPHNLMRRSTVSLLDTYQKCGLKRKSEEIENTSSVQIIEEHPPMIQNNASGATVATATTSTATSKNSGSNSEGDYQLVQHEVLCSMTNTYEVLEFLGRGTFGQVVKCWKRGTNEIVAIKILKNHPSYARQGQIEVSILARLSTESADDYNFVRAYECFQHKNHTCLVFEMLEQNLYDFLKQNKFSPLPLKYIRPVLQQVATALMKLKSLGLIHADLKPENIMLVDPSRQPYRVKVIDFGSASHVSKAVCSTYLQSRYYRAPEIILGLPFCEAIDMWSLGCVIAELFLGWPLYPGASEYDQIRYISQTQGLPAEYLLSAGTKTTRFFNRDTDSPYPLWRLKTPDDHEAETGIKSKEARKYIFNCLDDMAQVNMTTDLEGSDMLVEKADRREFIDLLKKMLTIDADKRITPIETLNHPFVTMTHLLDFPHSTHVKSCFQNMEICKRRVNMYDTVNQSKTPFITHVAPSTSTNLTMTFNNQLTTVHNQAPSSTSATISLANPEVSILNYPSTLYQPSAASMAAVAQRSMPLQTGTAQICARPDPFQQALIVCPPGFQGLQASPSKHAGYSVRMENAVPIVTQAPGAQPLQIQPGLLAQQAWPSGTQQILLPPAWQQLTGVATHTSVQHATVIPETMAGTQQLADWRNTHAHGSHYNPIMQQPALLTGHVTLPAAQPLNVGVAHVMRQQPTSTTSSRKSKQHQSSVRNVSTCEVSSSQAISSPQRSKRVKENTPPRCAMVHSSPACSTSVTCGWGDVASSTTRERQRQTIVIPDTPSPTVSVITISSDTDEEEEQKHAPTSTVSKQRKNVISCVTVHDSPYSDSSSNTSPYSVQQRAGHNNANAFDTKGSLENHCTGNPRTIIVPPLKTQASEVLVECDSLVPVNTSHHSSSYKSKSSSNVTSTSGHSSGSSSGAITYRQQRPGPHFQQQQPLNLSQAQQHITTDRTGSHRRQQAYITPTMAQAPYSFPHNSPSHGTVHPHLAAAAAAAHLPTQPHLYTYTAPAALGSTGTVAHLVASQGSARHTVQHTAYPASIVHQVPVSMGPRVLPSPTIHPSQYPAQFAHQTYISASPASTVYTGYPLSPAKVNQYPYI
# TLK2, sequence (Q86UE8 whole entry): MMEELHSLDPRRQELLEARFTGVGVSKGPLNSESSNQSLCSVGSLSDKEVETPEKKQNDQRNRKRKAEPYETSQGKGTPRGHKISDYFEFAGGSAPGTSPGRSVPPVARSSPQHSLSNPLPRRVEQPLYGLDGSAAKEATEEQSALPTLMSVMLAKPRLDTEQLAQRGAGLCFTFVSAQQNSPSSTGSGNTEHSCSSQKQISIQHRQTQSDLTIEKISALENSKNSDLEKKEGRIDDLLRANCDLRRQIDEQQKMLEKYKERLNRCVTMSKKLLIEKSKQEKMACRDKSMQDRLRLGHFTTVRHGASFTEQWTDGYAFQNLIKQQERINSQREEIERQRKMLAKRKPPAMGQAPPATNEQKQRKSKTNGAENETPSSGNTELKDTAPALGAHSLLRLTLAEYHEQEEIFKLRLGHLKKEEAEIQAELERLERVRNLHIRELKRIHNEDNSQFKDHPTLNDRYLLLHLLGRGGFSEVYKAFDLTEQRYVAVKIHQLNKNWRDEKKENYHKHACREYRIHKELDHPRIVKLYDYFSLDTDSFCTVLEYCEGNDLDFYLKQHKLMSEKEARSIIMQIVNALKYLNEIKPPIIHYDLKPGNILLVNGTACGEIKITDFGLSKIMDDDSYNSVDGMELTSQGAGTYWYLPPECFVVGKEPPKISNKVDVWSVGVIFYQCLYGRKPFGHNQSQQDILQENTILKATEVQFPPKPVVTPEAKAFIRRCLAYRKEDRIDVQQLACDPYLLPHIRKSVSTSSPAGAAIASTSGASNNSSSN
structure (smiles),measurement,setting,value
C#C[C@@](C)(c1ccc(Cl)cc1)c1csc(NC(=O)c2c(F)cc(N3CCNCC3)cc2F)n1 (stereo in doubt) [DF-003],remaining activity at 10 µM,HIPK2,101%
same,remaining activity at 10 µM,ERBB4/HER4,121%
same,remaining activity at 10 µM,TBK1,95.4%
same,remaining activity at 10 µM,PKG1a,111%
same,remaining activity at 10 µM,JNK3,92.2%
same,remaining activity at 10 µM,ITK,71.2%
same,remaining activity at 10 µM,ZIPK/DAPK3,68.5%
same,remaining activity at 10 µM,CDK14/cyclin Y (PFTK1),98.8%
same,remaining activity at 10 µM,STK16,109%
same,remaining activity at 10 µM,JNK1,97.7%
same,remaining activity at 10 µM,SRPK2,126%
same,remaining activity at 10 µM,ALK4/ACVR1B,83.8%
same,remaining activity at 10 µM,TLK1,96.5%
same,remaining activity at 10 µM,TLK2,92.1%
same,remaining activity at 10 µM,AMPK (A2/B1/G3),87.3%
same,remaining activity at 10 µM,CLK4,128%
same,remaining activity at 10 µM,RSK2,104%
same,remaining activity at 10 µM,PDGFRa,87.6%
same,remaining activity at 10 µM,MSK2/RPS6KA4,59.7%
same,remaining activity at 10 µM,BRK,81.2%
same,remaining activity at 10 µM,LKB1,86.5%
same,remaining activity at 10 µM,ERN2/IRE2,62.1%
same,remaining activity at 10 µM,EPHA7,105%
same,remaining activity at 10 µM,LCK,121%
same,remaining activity at 10 µM,SNARK/NUAK2,124%
same,remaining activity at 10 µM,CLK2,90.6%
same,remaining activity at 10 µM,GRK4,108%
same,remaining activity at 10 µM,PAK1,122%
same,remaining activity at 10 µM,CK2a,101%
same,remaining activity at 10 µM,MEK1,102%
same,remaining activity at 10 µM,VRK1,117%
same,remaining activity at 10 µM,FGFR3,136%
same,remaining activity at 10 µM,EIF2AK1,91.9%
same,remaining activity at 10 µM,TRKA,46.4%
same,remaining activity at 10 µM,BTK,76.8%
same,remaining activity at 10 µM,GRK1,99.3%
same,remaining activity at 10 µM,DYRK2,83.6%
same,remaining activity at 10 µM,DAPK1,62.8%
same,remaining activity at 10 µM,SLK/STK2,89%
same,remaining activity at 10 µM,MLK2/MAP3K10,67.5%
